Measured values reported in patent EP4741379A1, “CLASS OF PROGRAMMED CELL DEATH INHIBITORS, PREPARATION METHOD THEREFOR AND USE THEREOF” (SHANGHAI INSTITUTE OF ORGANIC CHEMISTRY, CHINESE ACADEMY OF …, priority 2023, dated 2025).
Where two headings read alike, the source gives them in different places.

Experiments:
[1] = system: FADD-deficient Jurkat cells; test: TNF-induced programmed necrosis of FADD-deficient Jurkat cells (Cell Titer-Glo viability); format: cell-based, human; details: for EC50: Homo sapiens, Jurkat; for programmed necroptosis inhibitory activity compared to SAR443122: TNFα alone or TNFα + SM164, human derived FADD-deficient Jurkat cells
Experimental: (§1) The biological test protocol is adopted to test effects of the compound on TNF-induced programmed necrosis of FADD (Fas-associated death domain)-deficient Jurkat cells and L929 cells.
(§2) Two different stimulation methods were used: treating with tumor necrosis factor (TNFα) alone, or treating with TNFα in combination of mitochondrial-derived cysteine-aspartate activator (SMAC) SM164. Cell viability was determined by measuring chemiluminescence values, thereby assessing the bioactivity of the compounds in inhibiting programmed cell necrosis.
(§3) Method: FADD-deficient Jurkat cells: FADD-deficient Jurkat cells (human peripheral blood leukemia T cell line) were cultured in vitro. After reaching logarithmic growth phase, cells were collected and centrifuged at 1000 rpm for 5 minutes. A supernatant was discarded. A cell concentration was adjusted to 2.5×10^5/mL, and cells were seeded into a 384-well plate at 40 µL per well. In the corresponding wells, 5 µL of SM164 (50 nM) and compounds diluted with cell culture medium were added. After pre-treatment at 37°C for 1 hour, 5 µL of TNFα (50 ng/mL) diluted with cell culture medium was added to each well as a stimulation group, while 5 µL of culture medium was added as a control group. After the plate was incubated in a cell culture incubator (37°C, 5% CO2) for 14 hours, 15 µL of Cell Titer-Glo solution was added to each well. Then, the plate was incubated at room temperature for 30 minutes. Luminescence was measured to assess intracellular ATP levels. Cell viability was set at 100% for unstimulated DMSO control wells. […] The plate was placed in a cell culture incubator (37°C, 5% CO2) and cultured for 12 hours. In the corresponding wells, 5 µL of SM164 (500 nM) and compounds diluted with cell culture medium were added. After pre-treatment at 37°C for 1 hour, 5 µL of TNFα (500 ng/mL) diluted with cell culture medium was added to the wells as a stimulation group, while 5 µL of culture medium was added as a control group. After the plate was incubated in the cell incubator (37°C, 5% CO2) for 14 hours, 15 µL of Cell Titer-Glo solution was added to each well. Then, the plate was incubated at room temperature for 30 minutes, and luminescence was measured to assess intracellular ATP levels. Cell viability was set at 100% for unstimulated DMSO control wells. EC50 values of the compounds were calculated using Prism GraphPad statistical software.

L929 cells = test: TNF-induced programmed necrosis of L929 cells (Cell Titer-Glo viability); format: cell-based, mouse; details: for EC50: Mus musculus
Experimental: as §1, §2, §3

mouse derived RIPK1 = molecular target: T1, mouse derived RIPK1 (Mus musculus, UniProt Q60855); test: Inhibitory activity against mouse derived RIPK1 (statement only); details: in words
T1 sequence (Q60855 1-656): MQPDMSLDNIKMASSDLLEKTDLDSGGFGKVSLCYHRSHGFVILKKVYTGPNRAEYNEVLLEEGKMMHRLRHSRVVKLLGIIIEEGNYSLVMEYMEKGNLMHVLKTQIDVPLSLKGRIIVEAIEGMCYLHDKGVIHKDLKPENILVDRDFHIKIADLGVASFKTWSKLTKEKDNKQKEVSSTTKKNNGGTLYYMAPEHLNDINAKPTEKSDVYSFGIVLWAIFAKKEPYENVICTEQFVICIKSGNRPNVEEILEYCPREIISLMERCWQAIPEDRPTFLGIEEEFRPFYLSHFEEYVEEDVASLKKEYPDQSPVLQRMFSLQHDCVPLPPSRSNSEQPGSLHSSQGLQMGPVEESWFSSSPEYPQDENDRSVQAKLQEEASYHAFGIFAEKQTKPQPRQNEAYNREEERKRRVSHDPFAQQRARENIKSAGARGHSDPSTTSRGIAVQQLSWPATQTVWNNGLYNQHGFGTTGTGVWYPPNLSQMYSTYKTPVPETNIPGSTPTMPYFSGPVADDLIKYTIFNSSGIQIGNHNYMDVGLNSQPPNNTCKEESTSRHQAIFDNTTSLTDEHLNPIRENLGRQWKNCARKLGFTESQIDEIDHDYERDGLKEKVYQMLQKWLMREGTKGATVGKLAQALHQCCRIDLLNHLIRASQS

[2] = stimulation with TNFα + SM164, read-out: EC50 (nM) FADD^-/- Jurkat cells (human-derived) TNFα+ SM164
[3] = L929, stimulation with TNFα + SM164, read-out: EC50 (nM) L929 cells (mouse-derived) TNFα+ SM164
[4] = L929, stimulation with TNFα alone, read-out: EC50 (nM) L929 cells (mouse-derived) TNFα
[5] = stimulation with TNFα alone, read-out: EC50 (nM) FADD^-/- Jurkat cells (human-derived) TNFα
[6] = read-out: EC50 (nM) FADD^-/- Jurkat cells (human-derived) TNFα
[7] = L929, read-out: EC50 (nM) L929 cells (mouse-derived) TNFα

Row | Structure (SMILES) | EC50 [1, 2] [nM] | EC50 (L929 cells; [3]) [nM] | EC50 (L929 cells; [4]) [nM] | EC50 [1, 5] [nM] | EC50 [1, 6] [nM] | EC50 (L929 cells; [7]) [nM] | programmed necroptosis inhibitory activity compared to SAR443122 [1] | inhibitory activity against mouse derived RIPK1 (mouse derived RIPK1) | programmed necroptosis inhibitory activity on mouse derived L929 cells (L929 cells; in words)
1 | C[C@H](NC(=O)c1nnn(C)c1Cc1ccccc1)c1ccc(C#Cc2cnc(N(C)C)cn2)cc1 [IRCBC-098] | 0.004 | 0.062 | 0.011 | – | – | – | – | – | –
2 | C[C@H](NC(=O)c1nnn(C)c1Cc1ccccc1)c1ccc(C#Cc2cccc(N(C)C)n2)cc1 [IRCBC-099] | 3.46 | 0.734 | 0.399 | 0.195 | – | – | – | – | –
3 | C[C@H](NC(=O)c1nnn(C)c1Cc1ccccc1)c1ccc(C#Cc2ccnc(N(C)C)n2)cc1 [IRCBC-100] | 1.79 | 1.21 | 0.561 | 0.084 | – | – | – | – | –
4 | C[C@H](NC(=O)c1nnn(C)c1Cc1ccccc1)c1ccc(C#Cc2ccnc(N(C)C)c2)cc1 [IRCBC-101] | 0.582 | 2.1 | 0.405 | 0.036 | – | – | – | – | –
5 | C[C@H](NC(=O)c1nnn(C)c1Cc1ccccc1)c1ccc(C#Cc2ccc(N3CCC3)cn2)cc1 [IRCBC-103] | 0.001 | 0.104 | 0.044 | – | – | – | – | – | –
6 | C[C@H](NC(=O)c1nnn(C)c1Cc1ccccc1)c1ccc(C#Cc2ccc(N3CCCC3)cn2)cc1 [IRCBC-104] | 0.002 | 0.12 | 0.071 | – | – | – | – | – | –
7 | C[C@H](NC(=O)c1nnn(C)c1Cc1ccccc1)c1ccc(C#Cc2csc(N(C)C)n2)cc1 [IRCBC-106] | 0.256 | 0.3 | 0.139 | 0.004 | – | – | – | – | –
8 | C[C@H](NC(=O)c1nnn(C)c1Cc1ccccc1)c1ccc(C#Cc2cnc(N(C)C)nc2)cc1 [IRCBC-119] | 5.79 | 70.9 | 20.9 | 0.164 | – | – | – | – | –
9 | C[C@H](NC(=O)c1nnn(C)c1Cc1ccccc1)c1ccc(C#Cc2ccc(C(C)(C)O)cn2)cc1 [IRCBC-120] | 0.079 | 1.74 | 0.438 | 0.002 | – | – | – | – | –
10 | C[C@H](NC(=O)c1nnn(C)c1Cc1ccccc1)c1ccc(C#Cc2ncccc2C#N)cc1 [IRCBC-121] | 0.01 | 0.069 | 0.012 | – | – | – | – | – | –
11 | C[C@H](NC(=O)c1nnn(C)c1Cc1ccccc1)c1ccc(C#Cc2ncccc2F)cc1 [IRCBC-122] | 0.035 | 0.032 | 0.026 | – | – | – | – | – | –
12 | COc1cccnc1C#Cc1ccc([C@H](C)NC(=O)c2nnn(C)c2Cc2ccccc2)cc1 [IRCBC-123] | 0.004 | 1.05 | 0.246 | – | – | – | – | – | –
13 | C[C@H](NC(=O)c1nnn(C)c1Cc1ccccc1)c1ccc(C#Cc2ncccc2N(C)C)cc1 [IRCBC-124] | 0.034 | 5.87 | 1.93 | – | – | – | – | – | –
14 | C[C@H](NC(=O)c1nnn(C)c1Cc1ccccc1)c1ccc(C#Cc2cc(N(C)C)ccn2)cc1 [IRCBC-125] | 0.145 | 1.68 | 0.445 | 0.01 | – | – | – | – | –
15 | C[C@H](NC(=O)c1nnn(C)c1Cc1ccccc1)c1ccc(C#Cc2cnc3cccnn23)cc1 [IRCBC-131] | 0.16 | 8.75 | 2.05 | 0.003 | – | – | – | – | –
16 | CCN1CCN(c2ccc(C#Cc3ccc([C@H](C)NC(=O)c4nnn(C)c4Cc4ccccc4)cc3)nc2)CC1 [IRCBC-134] | 0.002 | 0.005 | 0.001 | – | – | – | – | – | –

Row | Structure (SMILES) | EC50 [1, 2] [nM] | EC50 (L929 cells; [3]) [nM] | EC50 (L929 cells; [4]) [nM] | EC50 [1, 5] [nM] | EC50 [1, 6] [nM] | EC50 (L929 cells; [7]) [nM] | programmed necroptosis inhibitory activity compared to SAR443122 [1] | inhibitory activity against mouse derived RIPK1 (mouse derived RIPK1) | programmed necroptosis inhibitory activity on mouse derived L929 cells (L929 cells; in words)
17 | CNc1cnc(C#Cc2ccc([C@H](C)NC(=O)c3nnn(C)c3Cc3ccccc3)cc2)cn1 [IRCBC-145] | 0.007 | 0.127 | 0.063 | – | – | – | – | – | –
18 | CC(=O)Nc1ccc(C#Cc2ccc([C@H](C)NC(=O)c3nnn(C)c3Cc3ccccc3)cc2)nc1 [IRCBC-149] | 0.003 | 0.066 | 0.045 | – | – | – | – | – | –
19 | CC(C)N1CCN(c2ccc(C#Cc3ccc([C@H](C)NC(=O)c4nnn(C)c4Cc4ccccc4)cc3)nc2)CC1 [IRCBC-159] | 0.002 | 0.006 | 0.003 | – | – | – | – | – | –
20 | C[C@H](NC(=O)c1nnn(C)c1Cc1ccccc1)c1ccc(C#Cc2ncc(NC3CC3)cn2)cc1 [IRCBC-271] | 0.0111 | 0.00618 | – | – | – | – | – | – | –
21 | CN1C(=O)N[C@H](Cc2c[nH]c3c(Cl)cccc23)C1=O [Nec-1s, reference compound] | – | – | – | – | 228 | 443 | – | – | –
22 | C[C@H](NC(=O)c1nnn(C)c1Cc1ccccc1)c1ccc(C#Cc2cccnc2)cc1 [QY-18-25] | 0.02 | 1.2 | 0.3 | < 0.01 | – | – | – | – | –
23 | C[C@H](NC(=O)c1nnn(C)c1Cc1ccccc1)c1ccc(C#Cc2ccncc2)cc1 [QY-18-27] | 0.01 | 0.06 | 0.04 | < 0.01 | – | – | stronger | – | –
24 | C[C@H](NC(=O)c1nnn(C)c1Cc1ccccc1)c1ccc(C#Cc2cnn(C)c2)cc1 [QY-18-43] | 0.06 | 0.08 | 0.05 | 0.02 | – | – | – | – | –
25 | C[C@H](NC(=O)c1nnn(C)c1Cc1ccccc1)c1ccc(C#CC2CCOCC2)cc1 [QY-18-44] | 0.3 | 0.3 | 0.2 | 0.04 | – | – | – | – | –
26 | C[C@H](NC(=O)c1nnn(C)c1Cc1ccccc1)c1ccc(C#CC2CC2)cc1 [QY-18-47] | 61 | 73 | 1 | 0.7 | – | – | – | – | –
27 | C[C@H](NC(=O)c1nnn(C)c1Cc1ccccc1)c1ccc(C#Cc2cnoc2)cc1 [QY-18-77] | 32 | – | 733 | 0.3 | – | – | – | – | –
28 | C[C@H](NC(=O)c1cnn(C)c1Cc1ccccc1)c1ccc(C#Cc2ccccn2)cc1 [QY-20-2] | 0.3 | 0.5 | 0.1 | 0.03 | – | – | – | – | –
29 | C[C@H](NC(=O)c1nnn(C)c1Cc1ccc(F)cc1)c1ccc(C#Cc2ccccn2)cc1 [QY-20-53] | 0.05 | 0.1 | 0.03 | < 0.01 | – | – | stronger | – | –
30 | C[C@H](NC(=O)c1nnn(C)c1Cc1cccc(F)c1)c1ccc(C#Cc2ccccn2)cc1 [QY-20-54] | < 0.01 | 0.3 | 0.05 | < 0.01 | – | – | stronger | – | –
31 | C[C@H](NC(=O)c1nnn(C)c1Cc1ccccc1)c1ccc(C#Cc2cncn2C)cc1 [QY-20-55] | 1.4 | 23 | 2.2 | 0.1 | – | – | – | – | –
32 | CN1C(=O)[C@@H](NC(=O)c2nnc(Cc3ccccc3)[nH]2)COc2cccnc21 [SAR443122, reference compound] | – | – | – | – | 0.9 | > 1000 | – | very poor inhibitory activity | nearly inactive
